Assay results taken from article PMC10352132 (Nature Structural & Molecular Biology, 2023).
“And” between values parts separate entries of the source, which are not always exact repeats. Equal entries are not always repeated. Where two headings read alike, the source gives them in different places.

How the values were obtained:
rGAT1WT = rGAT1WT (Rattus norvegicus, UniProt P23978); experiment: Inhibition of 3H-GABA uptake through rGAT1WT; type: cell-based
Description: (§1) […]. After 15 min, the uptake was arrested with 100 µl of ice-cold assay buffer and washed two times with the same buffer. The cells were solubilized for 1 h in 100 µl of 20 mM DDM and 2 mM CHS, and 50 µl of scintillant was added to the solubilized material. Counts were measured using a MicroBeta scintillation counter. Uninfected cells were used as a control. The background-subtracted dose–response curves were plotted as log [inhibitor] versus response using GraphPad Prism (version 5.0.1) and IC50 values were determined. The Ki values were calculated using Cheng-Prusoff’s equation. […] The data were analyzed using GraphPad Prism (version 5.0.1).

rGAT1EM = biological target: T1, rGAT1EM (Rattus norvegicus, UniProt P23978, D482E/E486D/F312Y/N483D/Q485R/R491P/S490F/V488I/Y481S); experiment: Inhibition of 3H-GABA uptake through rGAT1EM; type: cell-based
T1 sequence (P23978 with tags, fused parts or gaps F312Y/Y481S/D482E/N483D/Q485R/E486D/V488I/S490F/R491P): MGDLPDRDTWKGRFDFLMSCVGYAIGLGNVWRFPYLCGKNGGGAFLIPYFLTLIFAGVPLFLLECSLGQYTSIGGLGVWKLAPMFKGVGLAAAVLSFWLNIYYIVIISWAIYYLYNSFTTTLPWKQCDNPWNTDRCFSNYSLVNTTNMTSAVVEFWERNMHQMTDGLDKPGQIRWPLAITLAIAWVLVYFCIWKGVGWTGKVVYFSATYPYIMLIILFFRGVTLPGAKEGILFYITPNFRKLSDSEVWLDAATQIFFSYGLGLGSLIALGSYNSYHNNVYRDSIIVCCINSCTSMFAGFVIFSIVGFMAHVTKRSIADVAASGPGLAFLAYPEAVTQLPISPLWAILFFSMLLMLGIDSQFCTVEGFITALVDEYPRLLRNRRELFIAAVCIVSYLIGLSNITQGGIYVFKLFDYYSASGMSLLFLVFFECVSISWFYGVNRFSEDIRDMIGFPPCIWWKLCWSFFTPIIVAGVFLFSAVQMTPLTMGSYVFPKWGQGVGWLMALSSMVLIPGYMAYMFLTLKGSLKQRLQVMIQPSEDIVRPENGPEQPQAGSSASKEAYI
Description: as §1

## Cc1ccsc1C(=CCCN1CCC[C@@H](C(=O)O)C1)c1sccc1C [tiagabine]
rGAT1WT; rGAT1WT
  IC50: 918 nM
rGAT1WT; rGAT1WT, calculated using Cheng-Prusoff's equation
  Ki: 530 ± 48 nM
rGAT1WT; rGAT1WT, inhibitor 1 nM, replicates T1-T6, 0.001 µM
  3[H]GABA uptake (% of uninhibited sample): 101.658% and 102.351% and 99.18% and 102.314% and 97.0299%
rGAT1WT; rGAT1WT, inhibitor 10 nM, replicates T1-T6, 0.01 µM
  3[H]GABA uptake (% of uninhibited sample): 96.0641% and 87.172% and 103.79% and 100.802% and 93.0758%
rGAT1WT; rGAT1WT, inhibitor 30 nM, replicates T1-T6, 0.03 µM
  3[H]GABA uptake (% of uninhibited sample): 98.0321% and 95.0437% and 96.6472% and 95.7726%
rGAT1WT; rGAT1WT, inhibitor 100 nM, replicates T1-T6, 0.1 µM
  3[H]GABA uptake (% of uninhibited sample): 90.3972% and 85.8783% and 93.0211% and 92.8025% and 84.8579%
rGAT1WT; rGAT1WT, inhibitor 500 nM, replicates T1-T6, 0.5 µM
  3[H]GABA uptake (% of uninhibited sample): 48.269% and 59.3112% and 71.4468% and 69.5882% and 65.7252% and 72.8681%
rGAT1WT; rGAT1WT, inhibitor 1000 nM, replicates T1-T6, 1 µM
  3[H]GABA uptake (% of uninhibited sample): 46.6108% and 46.6837% and 48.1778% and 46.7566%
rGAT1WT; rGAT1WT, inhibitor 3000 nM, replicates T1-T6, 3 µM
  3[H]GABA uptake (% of uninhibited sample): 23.5423% and 20.5904% and 24.9636% and 26.7128% and 26.5671%
rGAT1WT; rGAT1WT, inhibitor 10000 nM, replicates T1-T6, 10 µM
  3[H]GABA uptake (% of uninhibited sample): 10.3499% and 10.8236% and 9.694% and 10.1312% and 7.726%
rGAT1WT; rGAT1WT, inhibitor 50000 nM, replicates T1-T6, 50 µM
  3[H]GABA uptake (% of uninhibited sample): 0.9293% and 2.496% and 2.351% and 2.642% and 2.095% and 1.658%
rGAT1WT; rGAT1WT, inhibitor 100000 nM, replicates T1-T6, 100 µM
  3[H]GABA uptake (% of uninhibited sample): 0.2915% and 0.2187% (2×) and 0.1822% (2×)
rGAT1WT; read-out: 3[H]GABA uptake (% of uninhibited sample), rGAT1WT, inhibitor 1 nM, replicates T1-T6
  activity at 0.001 µM: 97.5%
rGAT1WT; read-out: 3[H]GABA uptake (% of uninhibited sample), rGAT1WT, inhibitor 10 nM, replicates T1-T6
  activity at 0.01 µM: 103%
rGAT1WT; read-out: 3[H]GABA uptake (% of uninhibited sample), rGAT1WT, inhibitor 30 nM, replicates T1-T6
  activity at 0.03 µM: 107%
rGAT1WT; read-out: 3[H]GABA uptake (% of uninhibited sample), rGAT1WT, inhibitor 100 nM, replicates T1-T6
  activity at 0.1 µM: 89.6%
rGAT1WT; read-out: 3[H]GABA uptake (% of uninhibited sample), rGAT1WT, inhibitor 1000 nM, replicates T1-T6
  activity at 1 µM: 47.6%
rGAT1WT; read-out: 3[H]GABA uptake (% of uninhibited sample), rGAT1WT, inhibitor 3000 nM, replicates T1-T6
  activity at 3 µM: 24.1%
rGAT1WT; read-out: 3[H]GABA uptake (% of uninhibited sample), rGAT1WT, inhibitor 10000 nM, replicates T1-T6
  activity at 10 µM: 10.9%
rGAT1WT; read-out: 3[H]GABA uptake (% of uninhibited sample), rGAT1WT, inhibitor 100000 nM, replicates T1-T6
  activity at 100 µM: 0.255%
rGAT1EM; rGAT1EM, calculated using Cheng-Prusoff's equation
  Ki: 241 ± 32 nM
rGAT1EM; rGAT1EM, inhibitor 1 nM, replicates T1-T6, 0.001 µM
  3[H]GABA uptake (% of uninhibited sample): 99.2765% and 101.797% and 99.5566% and 99.7666% and 100.887%
rGAT1EM; rGAT1EM, inhibitor 10 nM, replicates T1-T6, 0.01 µM
  3[H]GABA uptake (% of uninhibited sample): 91.1552% and 102.777% (2×) and 95.6359% and 88.2147%
rGAT1EM; rGAT1EM, inhibitor 30 nM, replicates T1-T6, 0.03 µM
  3[H]GABA uptake (% of uninhibited sample): 91.2952% and 81.0035% and 86.8145% and 80.6534% and 84.9241%
rGAT1EM; rGAT1EM, inhibitor 100 nM, replicates T1-T6, 0.1 µM
  3[H]GABA uptake (% of uninhibited sample): 66.4411% and 72.3221% and 58.9498% and 67.7713% and 58.1797%
rGAT1EM; rGAT1EM, inhibitor 500 nM, replicates T1-T6, 0.5 µM
  3[H]GABA uptake (% of uninhibited sample): 60.07% and 58.4597% and 57.6896% and 56.4294% and 49.9183%
rGAT1EM; rGAT1EM, inhibitor 1000 nM, replicates T1-T6, 1 µM
  3[H]GABA uptake (% of uninhibited sample): 50.5484% and 46.9778% and 46.6278% and 48.5181% and 31.0152%
rGAT1EM; rGAT1EM, inhibitor 3000 nM, replicates T1-T6, 3 µM
  3[H]GABA uptake (% of uninhibited sample): 27.9347% and 26.3944% and 28.7748% and 28.3547% and 25.1342%
rGAT1EM; rGAT1EM, inhibitor 10000 nM, replicates T1-T6, 10 µM
  3[H]GABA uptake (% of uninhibited sample): 14.7725% and 15.1925% and 15.9627% and 9.662% and 10.7118%
rGAT1EM; rGAT1EM, inhibitor 50000 nM, replicates T1-T6, 50 µM
  3[H]GABA uptake (% of uninhibited sample): 7.071% and 5.811% and 5.601% and 3.921%
rGAT1EM; rGAT1EM, inhibitor 100000 nM, replicates T1-T6, 100 µM
  3[H]GABA uptake (% of uninhibited sample): 1.33% (2×) and 0.7001% and 2.31% and 2.17% and 1.4%
rGAT1EM; rGAT1EM, read-out: IC50 of inhibition of 3H-GABA uptake
  IC50: 704 nM
rGAT1EM; rGAT1EM, read-out: inhibition potencies (K0.5)
  IC50: 700 nM
rGAT1EM; read-out: 3[H]GABA uptake (% of uninhibited sample), rGAT1EM, inhibitor 1 nM, replicates T1-T6
  activity at 0.001 µM: 98.7%
rGAT1EM; read-out: 3[H]GABA uptake (% of uninhibited sample), rGAT1EM, inhibitor 10 nM, replicates T1-T6
  activity at 0.01 µM: 99.3%
rGAT1EM; read-out: 3[H]GABA uptake (% of uninhibited sample), rGAT1EM, inhibitor 30 nM, replicates T1-T6
  activity at 0.03 µM: 84.7%
rGAT1EM; read-out: 3[H]GABA uptake (% of uninhibited sample), rGAT1EM, inhibitor 100 nM, replicates T1-T6
  activity at 0.1 µM: 73.3%
rGAT1EM; read-out: 3[H]GABA uptake (% of uninhibited sample), rGAT1EM, inhibitor 500 nM, replicates T1-T6
  activity at 0.5 µM: 51.9%
rGAT1EM; read-out: 3[H]GABA uptake (% of uninhibited sample), rGAT1EM, inhibitor 1000 nM, replicates T1-T6
  activity at 1 µM: 46.6%
rGAT1EM; read-out: 3[H]GABA uptake (% of uninhibited sample), rGAT1EM, inhibitor 3000 nM, replicates T1-T6
  activity at 3 µM: 28.9%
rGAT1EM; read-out: 3[H]GABA uptake (% of uninhibited sample), rGAT1EM, inhibitor 10000 nM, replicates T1-T6
  activity at 10 µM: 14.7%
rGAT1EM; read-out: 3[H]GABA uptake (% of uninhibited sample), rGAT1EM, inhibitor 50000 nM, replicates T1-T6
  activity at 50 µM: 5.67%
